Results published in patent US4820715A, “Anti-emetic quinuclidinyl benzamides” (Bristol-Myers Company, priority 1987, dated 1989).
Where a name gives a salt, the structure may show the parent alone.

What was measured:
[1] = target: dopaminergic (D2) receptors (Rattus norvegicus, UniProt P61169); assay: biochemical; assay type: binding; settings: striatal rat brain homogenates, ^3H-spiperone, 37° C., 15 minutes; read-out: 3H-Spiperone Displacement IC50
Procedure: Rats (150±10 g; Charles River) were decapitated, the corpus striatum dissected out and frozen on dry ice. The tissues were pooled and stored at -80° C. until used. Homogenates (Brinkmann Polytron) of the corpus striatum in cold HEPES.KOH buffer (final pH=7.4) were centrifuged at 39,000×G. The supernatant was discarded and the pellets were re-suspended in HEPES.KOH buffer and re-centrifuged as above.
Tests to determine the Inhibitory Concentration50 (IC50) of the compounds of Formula I and reference compounds versus ^3 H-spiperone were conducted as follows. Tubes containing either 100 μL of buffer mixture (for total binding), 100 μL of buffer mixture plus 100 μL of 10^-4 M D(+)-butaclamol (for blanks, i.e. non-specific binding), or 100 μL of buffer mixture containing 10^-7, 10^-6 or 10^-5 M test compound were prepared. To each were added 100 μL of a solution of ^3 H-spiperone (New England Nuclear) in buffer mixture (2000 c.p.m. in the incubation mixture) and 800 μL of the striatal tissue suspension. The tubes were then diluted to 1 mL with buffer mixture, giving a final concentration of 10^-8, 10^-7 or 10^-6 M test compound and approximately 100 pM ^3 H-spiperone. The samples were incubated at 37° C. for 15 minutes, filtered in vacuo on glass fiber filters and counted by liquid scintillation spectrometry. […] All samples were run in duplicate.

Cisplatin-Induced Emesis = assay: Antagonism of Cisplatin-Induced Emesis in the Ferret; assay type: in vivo, Fitch ferrets; settings: Mustela putorius, iv, 4 h, i.v. × 2, read-out: Antagonism of Cisplatin-Induced Emesis in the Ferret, % Protection
Excerpt: The ventral and dorsal area of the neck is shaved and a 3 cm incision is made. The left jugular vein is exposed and ligated with a silk suture at the cephalic end. The indwelling catheter is constructed of Silastic tubing 18 cm in length (0.020 inch I.D.×0.037 inch O.D.) with a 2 cm polyethylene sleeve (0.045 inch I.D.×0.062 inch O.D.) filled with heparin (1000 units/ml) and sealed at the exposed end with a 23 gauge×1 inch needle crimped at both ends. A small cut is made in the jugular and the catheter inserted, allowing the free end to be delivered through a 13 gauge×5 cm trochar under the skin and attached to the nape of the neck with a silk suture. The ferrets are housed in individual cages and allowed 2-4 days recovery before testing. On the test day, the test compounds were administered i.v. […] The cisplatin solution was prepared by adding 70° C. physiological saline, stirring and sonicating until dissolved. The resulting solution (4 mg/ml) was maintained at 40° C. and administered i.v. ([…]) via the catheter. Following administration of cisplatin, the ferrets were observed continuously for four hours and emetic episodes recorded. Two or more emetic episodes within a one-minutes period was considered as a single episode. The ferrets were euthanized with T-61 i.v. at the termination of the experiment, and proper placement of the catheter was verified.

[2] = test system: Apomorphine-Induced Emesis; assay: Antagonism of Apomorphine-Induced Emesis in Dogs; assay type: in vivo, beagle dogs; settings: Canis lupus familiaris, sc; s.c. 30 minutes prior to apomorphine 0.3 mg/kg; dog; read-out: Antagonism of Apomorphine-Induced Emesis in the Dog ED50
Procedure: Unfasted beagle dogs of both sexes were used as test subjects. Test compounds and apomorphine were each administered subcutaneously as aqueous solutions, with the test compound being administered 30 minutes prior to the administration of the apormorphine.
Apomorphine was administered at a dose of 0.3 mg/kg. […] All tests were run in at least two dogs.

[3] = test system: field-stimulated guinea pig ileum; assay: Gastrokinetic Activity: contraction of field-stimulated guinea pig ileum preparations; set-up: species or system guinea pig (Hartley); settings: Cavia porcellus; for EC30: effective concentration30, read-out: EC30 (95% C.L.); for EC50: effective concentration50, read-out: EC50 (95% C.L.); for minimal effective concentration: read-out: Minimum Effective Concentration
Procedure: This activity is considered to be correlated with gastrokinetic (prokinetic) activity in vivo, i.e. enhancement of gastric motility and gastric emptying.
Normal, male guinea pigs (Hartley; Charles River) weighing […] are sacrificed by cervical dislocation. The terminal portion of the ileum was removed after discarding a 10 cm segment nearest to the ileocecal junction. The strips, 3-4 cm in length, were mounted in a 20 ml organ bath containing Krebs physiological buffer solution. The buffer was bubbled with 95% O2 -5% CO2 and kept at 37° C. The resting tension was adjusted to 1.0 g, and the tissues were equilibrated without stimulation for 15 minutes. For electrical stimulation, a platinum wire (cathode) was threaded up through the lumen and another platinum wire (anode) was attached to the glass rod that suspended the muscle. Tissues were stimulated coaxially at 1.5 times the voltage necessary to produce maximum twitch height, with single pulses, 0.5 msec in duration, delivered once every 10 seconds. After the 15 minute equilibration period (without stimulation), the stimulator (Grass S88 Stimulator) was turned on and the tissues were allowed to stabilize for approximately 1 hour, or until the twitch height remained constant, with washes every 20 minutes.

[4] = read-out: Average % Maximum Increase

dopaminergic (D2) receptors, sequence (P61169 whole entry): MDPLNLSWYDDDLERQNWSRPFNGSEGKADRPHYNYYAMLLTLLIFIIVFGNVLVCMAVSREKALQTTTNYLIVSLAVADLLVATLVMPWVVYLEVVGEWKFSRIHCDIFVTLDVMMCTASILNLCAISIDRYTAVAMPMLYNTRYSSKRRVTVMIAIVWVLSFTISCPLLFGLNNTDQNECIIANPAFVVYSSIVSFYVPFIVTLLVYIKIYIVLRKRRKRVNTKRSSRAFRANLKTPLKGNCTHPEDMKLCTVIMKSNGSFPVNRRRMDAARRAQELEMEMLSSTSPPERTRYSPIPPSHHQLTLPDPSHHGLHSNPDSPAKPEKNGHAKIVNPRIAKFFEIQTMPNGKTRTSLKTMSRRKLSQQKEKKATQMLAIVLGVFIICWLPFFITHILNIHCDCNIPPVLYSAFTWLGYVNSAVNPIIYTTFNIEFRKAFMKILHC

Compound	IC50 [1] [nM]	EC50 [3] [nM]	inhibition in vivo at 3 mg/kg (Cisplatin-Induced Emesis) [%]	ED50 [2] [mg/kg]	inhibition in vivo at 1 mg/kg (Cisplatin-Induced Emesis) [%]	activation at 3 µM ([3]; at 3 μM, read-out: Average % Maximum Increase) [%]	EC30 [3] [nM]	minimal effective concentration [3] [µM]	activation at 30 µM [3, 4] [%]	activation at 10 µM ([3]; at 10 μM, read-out: Average % Maximum Increase) [%]
CCN(CC)CCNC(=O)c1cc(Cl)c(N)cc1OCCCN1C(=O)c2ccccc2C1=O [Example 38, 4-Amino-5-chloro-N-[2-(diethylamino)ethyl]-2-[3-(phthalimido)propoxy]benzamide]	> 1000	–	57	> 3	–	–	–	–	–	–
CCN(CC)CCNC(=O)c1cc(Cl)c(N)cc1OCCCN [Example 39, 4-Amino-2-(3-aminopropoxy)-5-chloro-N-[2-(diethylamino)ethyl]benzamide]	> 1000	–	71	> 3	–	–	–	–	–	–
CCOC(=O)C(Oc1cc(N)c(Cl)cc1C(=O)NCCN(CC)CC)c1ccccc1 (stereo not drawn) [Example 35, α-{3-Amino-4-chloro-6-[N-(2-[diethylamino]ethyl)]carbomoylphenoxy}phenylacetic acid, ethyl ester]	> 1000	–	72	> 3	–	–	–	–	–	–
CCN(CC)CCNC(=O)c1cc(Cl)c(N)cc1OCCSC [Example 20, 4-Amino-5-chloro-N-[2-(diethylamino)ethyl]-2-[2-(methylthio)ethoxy]benzamide]	> 1000	–	50	> 3	–	–	–	–	–	–
CC(=O)C(C)Oc1cc(N)c(Cl)cc1C(=O)NCCN(C)C (stereo not drawn) [Example 32, 4-Amino-2-(2-butanon-3-yl)oxy-5-chloro-N-[2-(dimethylamino)ethyl]benzamide]	> 1000	–	–	> 3	72	–	–	–	–	–
CCN(CC)CCNC(=O)c1cc(Cl)c(N)cc1OCC(C)=NOC [Example 11, 4-Amino-5-chloro-N-[2-(diethylamino)ethyl]-2-[(2-methoxyimino)propan-1-yl]oxybenzamide]	> 1000	–	90	> 3	–	–	–	–	–	–
C=CCN1CCCC1CNC(=O)c1cc2[nH]nnc2cc1OC (stereo not drawn) [Alizapride, reference compound]	290	–	27	0.3	–	–	–	–	–	–
CCN(CC)CCNC(=O)c1cc(Cl)c(N)cc1OCc1cc(C)no1 [Example 19, 4-Amino-5-chloro-N-[2-(diethylamino)ethyl]-2-(3-methylisoxazol-5-yl)methoxybenzamide]	–	5900	72	> 3	–	39	1700	0.1	–	–
C=CCC(C)(Oc1cc(N)c(Cl)cc1C(=O)NCCN(CC)CC)C(C)=O (stereo not drawn) [Example 8, 4-Amino-5-chloro-N-[2-(diethylamino)ethyl]-2-[(3-methyl)-5-hexen-2-on-3-yl]oxybenzamide]	> 1000	–	95	> 3	–	–	–	–	–	–
CCN(CC)CCNC(=O)c1cc(Cl)c(N)cc1OC(C)C#N (stereo not drawn) [Example 14, 4-Amino-5-chloro-[2-(diethylamino)ethyl]-2-(1-cyano)ethoxybenzamide]	–	18000	62	> 3	–	–	4300	0.1	55	–
CCN(CC)CCNC(=O)c1cc(Cl)c(N)cc1OC(C)C(C)=NO (stereo not drawn) [Example 34, 4-Amino-5-chloro-N-[2-(diethylamino)ethyl]-2-(2-hydroxyiminobut-3-yl)oxybenzamide]	> 1000	–	–	> 3	54	–	–	–	–	–
CCN(CC)CCNC(=O)c1cc(Cl)c(N)cc1OCCOC(C)=O [Example 57, 2-(2-Acetoxyethoxy)-4-amino-5-chloro-N-[2-(diethylamino)ethyl]-benzamide]	> 1000	–	66	> 3	–	–	–	–	–	–
COc1cc(N)c(Cl)cc1C(=O)NC1CCN(Cc2ccccc2)CC1 [Clebopride, reference compound]	11	–	70	0.04	–	–	–	–	–	–

Second part, led by results:

IC50 [1] [nM]	EC50 [3] [nM]	Compound	inhibition in vivo at 3 mg/kg (Cisplatin-Induced Emesis) [%]	ED50 [2] [mg/kg]	inhibition in vivo at 1 mg/kg (Cisplatin-Induced Emesis) [%]	activation at 3 µM ([3]; at 3 μM, read-out: Average % Maximum Increase) [%]	EC30 [3] [nM]	minimal effective concentration [3] [µM]	activation at 30 µM [3, 4] [%]	activation at 10 µM ([3]; at 10 μM, read-out: Average % Maximum Increase) [%]
> 1000	–	CCN(CC)CCNC(=O)c1cc(Cl)c(N)cc1OCC(=O)N(C)C [Example 55]	66	> 3	–	–	–	–	–	–
760	–	CO[C@@H]1CN(CCCOc2ccc(F)cc2)CC[C@@H]1NC(=O)c1cc(Cl)c(N)cc1OCCSC.O (relative stereo) [Example 61, Cis-4-amino-5-chloro-N-{1-[3-(4-fluorophenoxy)propyl]-3-methoxy-4-piperidinyl}-2-[2-(methylthio)ethoxy]benzamide monohydrate]	71	> 3	–	–	–	–	–	–
> 1000	–	CCN(CC)CCNC(=O)c1cc(Cl)c(N)cc1OCCN [Example 47, 4-Amino-2-(2-aminoethoxy)-5-chloro-N-[2-(diethylamino)ethyl]benzamide]	8	> 3	–	–	–	–	–	–
> 1000	–	CCOC(=O)C=C(COc1cc(N)c(Cl)cc1C(=O)NCCN(CC)CC)OC [Example 42, 4-Amino-5-chloro-N-[2-(diethylamino)ethyl]-2-(ethyl-3-methoxycroton-4-yl)oxybenzamide]	95	> 3	–	–	–	–	–	–
–	5000	CCN(CC)CCNC(=O)c1cc(Cl)c(N)cc1OCC1=NCCN1 [Example 51, 4-Amino-5-chloro-N-[2-(diethylamino)ethyl]-2-(1H-4,5-dihydroimidazol-2-yl)methoxybenzamide]	71	> 3	–	–	230	0.03	–	51
> 1000	–	CCN(CC)CCNC(=O)c1cc(Cl)c(N)cc1OCC1CNC(=O)O1 (stereo not drawn) [Example 44, 4-Amino-5-chloro-N[2-(diethylamino)ethyl]-2-(oxazolidin)-2-one-5-ylmethyl)oxybenzamide Fumarate]	71	> 3	–	–	–	–	–	–
> 1000	–	CCN(CC)CCNC(=O)c1cc(Cl)c(N)cc1OCCCSC [Example 49, 4-Amino-5-chloro-N-[2-(diethylamino)ethyl]-2-[3-(methylthio)propoxy]benzamide]	62	> 3	–	–	–	–	–	–
> 1000	–	CCN(CC)CCNC(=O)c1cc(Cl)c(N)cc1OCCCl [Example 53, 4-Amino-5-chloro-2-(2-chloroethoxy)-N-[2-(2-diethylamino)ethyl]benzamide]	91	> 3	–	–	–	–	–	–
–	11000	CCN(CC)CCNC(=O)c1cc(Cl)c(N)cc1OC [Metoclopramide, reference compound]	89	0.5	–	–	1600	0.03	62	–
